The compounds below were run against KDR (Homo sapiens, UniProt P35968) (assay: KDR cellular assay (KDR receptor phosphorylation ELISA)). Conditions: KDR transfected 3T3 (embryonic mouse) cells, VEGF stimulated; read-out: IC50 inhibition of KDR phosphorylation.
Assay type: cell-based
Parameters: expressed in transfected cells; host or cells: 3T3 (embryonic mouse) cells
Outline: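 Phospho-KDR measured by capture ELISA (anti-KDR coat, biotinylated detection, streptavidin-HRP, 450 nm) in lysates of KDR-expressing 3T3 mouse fibroblasts. Cells saw compound 20 min at 37° C before 10 min VEGF challenge (100 ng/ml solution); IC50 from non-linear regression of half-log dose series.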

Sequence of KDR (P35968 20-1356): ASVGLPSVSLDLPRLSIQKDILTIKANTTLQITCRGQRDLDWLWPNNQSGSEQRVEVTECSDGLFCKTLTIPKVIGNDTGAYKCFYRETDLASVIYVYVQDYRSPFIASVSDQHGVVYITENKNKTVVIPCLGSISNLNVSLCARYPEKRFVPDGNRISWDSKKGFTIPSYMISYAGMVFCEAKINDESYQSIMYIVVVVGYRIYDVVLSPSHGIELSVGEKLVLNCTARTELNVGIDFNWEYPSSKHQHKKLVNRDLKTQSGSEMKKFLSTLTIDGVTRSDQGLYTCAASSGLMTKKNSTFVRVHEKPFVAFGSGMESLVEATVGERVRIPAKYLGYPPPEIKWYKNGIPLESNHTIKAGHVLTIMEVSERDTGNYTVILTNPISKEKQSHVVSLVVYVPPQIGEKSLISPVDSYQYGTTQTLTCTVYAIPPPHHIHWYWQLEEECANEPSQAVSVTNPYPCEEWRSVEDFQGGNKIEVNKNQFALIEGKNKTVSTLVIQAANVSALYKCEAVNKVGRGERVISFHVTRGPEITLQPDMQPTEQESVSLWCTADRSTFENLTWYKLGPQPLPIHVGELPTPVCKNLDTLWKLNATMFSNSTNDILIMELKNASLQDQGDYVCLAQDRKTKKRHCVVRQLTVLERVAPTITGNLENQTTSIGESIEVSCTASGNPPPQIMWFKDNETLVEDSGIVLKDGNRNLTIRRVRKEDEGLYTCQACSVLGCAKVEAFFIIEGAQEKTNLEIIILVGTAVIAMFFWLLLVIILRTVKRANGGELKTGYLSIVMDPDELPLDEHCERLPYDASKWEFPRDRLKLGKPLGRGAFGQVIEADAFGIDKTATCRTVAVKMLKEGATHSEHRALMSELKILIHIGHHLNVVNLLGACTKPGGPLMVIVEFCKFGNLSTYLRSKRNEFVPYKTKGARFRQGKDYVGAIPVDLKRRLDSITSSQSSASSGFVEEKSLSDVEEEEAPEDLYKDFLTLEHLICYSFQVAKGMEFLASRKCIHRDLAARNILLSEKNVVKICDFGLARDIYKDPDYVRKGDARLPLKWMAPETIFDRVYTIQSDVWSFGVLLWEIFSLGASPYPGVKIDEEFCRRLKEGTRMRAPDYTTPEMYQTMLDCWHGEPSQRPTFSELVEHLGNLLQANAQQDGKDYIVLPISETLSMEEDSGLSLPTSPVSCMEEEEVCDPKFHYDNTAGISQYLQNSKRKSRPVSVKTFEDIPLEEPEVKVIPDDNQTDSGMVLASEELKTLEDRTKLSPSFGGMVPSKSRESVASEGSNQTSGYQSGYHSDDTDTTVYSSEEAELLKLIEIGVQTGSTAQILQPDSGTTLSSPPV

Q: `Cc1cccc(Cn2cc(Nc3ncc(Cl)c(N[C@H]4[C@@H](C(N)=O)[C@@H]5C=C[C@H]4C5)n3)cn2)c1` [Example 178, (1S,2S,3R,4R)-3-[(5-chloro-2-{[1-(3-methylbenzyl)-1H-pyrazol-4-yl]amino}pyrimidin-4-yl)amino]bicyclo[2.2.1]hept-5-ene-2-carboxamide] was tested. Which IC50 did it give?
A: < 100 nM

Q: For `NC(=O)[C@@H]1[C@H](Nc2nc(Nc3cnn(Cc4ccc5ccccc5c4)c3)ncc2Cl)[C@H]2C=C[C@@H]1C2` [Example 179, (1S,2S,3R,4R)-3-[(5-chloro-2-{[1-(2-naphthylmethyl)-1H-pyrazol-4-yl]amino}pyrimidin-4-yl)amino]bicyclo[2.2.1]hept-5-ene-2-carboxamide], which IC50 is on record?
A: < 100 nM

Q: Which IC50 does the source give for `COc1ccc(Cn2cc(Nc3ncc(Cl)c(N[C@H]4[C@@H](C(N)=O)[C@@H]5C=C[C@H]4C5)n3)cn2)cc1F` [Example 192, (1S,2S,3R,4R)-3-[(5-chloro-2-{[1-(3-fluoro-4-methoxybenzyl)-1H-pyrazol-4-yl]amino}pyrimidin-4-yl)amino]bicyclo[2.2.1]hept-5-ene-2-carboxamide] here?
A: < 100 nM

Q: With “(1S,2R)-2-{[5-chloro-2-({1-[2-(morpholin-4-yl)ethyl]-1H-pyrazol-4-yl}amino)pyrimidin-4-yl]amino}cyclopentanecarboxamide and (1R,2S)-2-{[5-chloro-2-({1-[2-(morpholin-4-yl)ethyl]-1H-pyrazol-4-yl}amino)pyrimidin-4-yl]amino}cyclopentanecarboxamide [Example 137]” as the compound, how does the IC50 read?
A: 100 to 1000 nM

From patent US8426408B2, “Pyrimidine inhibitors of kinases” (AbbVie Inc., priority 2009, dated 2013)
